Consider 15 compounds from PubChem BioAssay (NCI).

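Where inhibition never reached the appropriate level, the endpoint shown equals the highest concentration tested. Otherwise, values were interpolated linearly from a five-concentration, 48-hour dose response in 96-well plates. Abbreviation: GI50, concentration required for 50% inhibition of growth. Definition used: TGI = concentration required for complete inhibition of growth.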

Assay in all cases: NCI-60 cell line screen, 48 h
Assay [1] concerns HCC-2998 colon.
Assay [2] deals with SK-MEL-5 melanoma.
Assay [3] relates to NCI-H460 lung.
In assay [4] the test system is COLO 205 colon.
Assay [5] concerns NCI-H226 lung.
The subject of assay [6] is HL-60(TB) leukemia.
In assay [7] the test system is NCI-H522 lung.
The test system of assay [8] is K-562 leukemia.
For assay [9], the system named is T-47D breast.
The test system of assay [10] is MDA-MB-435.

Take `O=c1c2c(-c3ccccc3)c3ccccc3nc2cnn1-c1ccccc1`: the TGI in [1], in [2], in assay [3], in [4], in assay [5] and in [6] was > 100 µM each time. Besides, the TGI in assay [7] and in [8] was > 100 µM throughout.
`Clc1ccccc1CN1COc2c(ccc3cccnc23)C1`: the TGI in assay [1] was determined as 19.6 µM; in assay [2] it was 8.93 µM; in assay [3] it was 20.8 µM; in assay [4], 24.8 µM; in assay [5], 19.4 µM; in assay [6] it was 4.33 µM. Also, the TGI was found to be 4.53 µM in assay [7] and 4.51 µM in [8].
With `Cc1cc(NCc2cc(Nc3ccnc4cc(Cl)ccc34)ccc2F)nc(N2CCOCC2)n1`, the GI50 in assay [9] was 1790 nM; in [1], 2270 nM; in assay [3] it was 2000 nM; in [5], 1890 nM; in assay [6], 1770 nM; in assay [7], 1840 nM. In assay [8], the GI50 is 1730 nM. In addition, the TGI in assay [9] turned out to be 4.26 µM; in assay [1], 5.44 µM; in [3] it was 4.77 µM; in assay [5], 5.61 µM; in assay [6], 3.82 µM; in assay [7], 4.39 µM. The same compound came in with a TGI in [8] of 6.18 µM.
Regarding `N=c1c2ccccc2sc2nc3ccccc3n12`, the TGI in assay [1], in assay [2], in assay [3], in assay [4], in [5] and in assay [6] was > 100 µM each time. Also, the TGI in assay [7] and in assay [8] was > 100 µM in each case.
`COC/N=C(\NC#N)NCOC`: the TGI in assay [1] is > 100 µM; in assay [2], > 100 µM; in assay [3] it was > 100 µM; in assay [4] it was > 85.1 µM; in assay [5], > 100 µM; in assay [6], > 100 µM. Also, the TGI in assay [7] and in [8] was > 100 µM throughout.
For `COc1ccc(O)c(C(=O)CCC(=O)O)c1`, the TGI in assay [1], in assay [2], in assay [3], in [4], in [5] and in assay [6] was > 100 µM throughout. Besides, the TGI in assay [7] and in assay [8] was > 100 µM throughout.
For the compound `C1=Cc2nc1c(-c1ccccc1)c1ccc([nH]1)c(-c1ccccc1)c1nc(c(-c3ccccc3)c3ccc([nH]3)c2-c2ccccc2)C=C1`, the TGI in [1], in assay [2], in [3], in [4], in assay [5] and in [6] was > 100 µM in each case. The TGI in assay [7] and in assay [8] was > 100 µM each time.
Take `COC(=O)c1cc(=O)nc2cc3cccccc3n12`: the TGI in assay [1], in assay [2], in assay [3], in assay [4], in assay [5] and in assay [6] was > 100 µM in each case. Besides, the TGI in assay [7] and in assay [8] was > 100 µM in each case.
Regarding `CCOc1ccc(N=C(NC(=O)c2ccccc2)SC)cc1`, the TGI in [1], in [2], in [3], in assay [4], in assay [5] and in assay [6] was > 100 µM in each case. Further, the TGI in assay [8] is > 100 µM.
For `CC1CC2(S(=O)(=O)c3ccccc3)ON1CC2S(=O)(=O)c1ccccc1` (stereo not drawn), the TGI in [1], in assay [3], in assay [4], in [5], in assay [6] and in [7] was > 100 µM throughout. The TGI in [8] is > 100 µM.
Consider `COc1ccccc1-c1cc(=O)c2cc(C)c(C)c(C(=O)O)c2o1`, for which the TGI in assay [1], in [2], in assay [3], in assay [4], in assay [6] and in assay [7] was > 100 µM in each case. Further, the TGI in assay [8] is > 100 µM.
On to `COc1cc([C@@H]2c3cc4c(cc3[C@H](OC(C)=O)[C@H]3COC(=O)[C@@H]23)OCO4)cc(OC)c1OC`, for which the GI50 in [1] is 285 nM; in assay [10] it was 78.7 nM; in assay [2] it was 298 nM; in [3] it was 322 nM; in [4], 272 nM; in assay [5], 3820 nM. The GI50 in assay [6] was 235 nM; in assay [7] it was 150 nM; in assay [8], 253 nM. The TGI in assay [10] is 469 nM; in assay [2], 1.24 µM; in [3] it was 3.3 µM; in [4] it was 0.678 µM; in [7], 0.448 µM; in [8], > 100 µM.
Take `COc1ccc(/C=C2\CCC(CCN(C)C)(C3=CCCC3)C2=O)cc1` (stereo not drawn): the TGI in [1] came to 32.9 µM; in assay [2] it was 30.3 µM; in assay [3], 40.5 µM; in assay [4], 25.9 µM; in [5], 38.5 µM; in assay [6], 36.6 µM. Further, the TGI came to 31.2 µM in assay [7] and 41.8 µM in assay [8].
In the case of `CCOc1cccc2c1N[S@@](=O)S2`, the TGI in [5], in assay [6], in assay [7] and in [8] was > 100 µM throughout.
`OC1=CN=COc2ccccc21`: the TGI in assay [1], in [3], in assay [4], in assay [6] and in assay [8] was > 100 µM throughout.
